# Reference: publication PMC3726769 (PLoS ONE, 2013)
# Where two headings read alike, the source gives them in different places.
# T1: collagen-like triple-helical peptide [GPO]2GMOGER[GPO]3 (O denotes hydroxyproline; C-terminal amide)
# T1 chain: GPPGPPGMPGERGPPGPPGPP
# B1: His-tagged integrin α2 I domain E318W (for SEC and crystallisation) (domain or fragment, human)
# chain: SLIDVVVVCDESNSIYPWDAVKNFLEKFVQGLDIGPTKTQVGLIQYANNPRVVFNLNTYKTKEEMIVATSQTSQYGGDLTNTFGAIQYARKYAYSAASGGRRSATKVMVVVTDGESHDGSMLKAVIDQCNHDNILRFGIAVLGYLNRNALDTKNLIKEIKAIASIPTERYFFNVSDWAALLEKAGTLGEQIFSIEGTV
# notes: also called α2 I E318W; E318W I domain; source: E. coli Origami, purified (HisTrap FF, SEC on Superdex 75)
# Tests used:
# [1] = test system: α2 I E318W; type: binding, human
# [2] = test system: α2 I E318W; type: binding, human; remark: listed apart in the source
# Protocol: (§1) I domain adhesion was determined colorimetrically using a solid-phase binding assay, modified slightly from our previous studies, [16], [32] and specified below. Wells were coated using 1 μg peptide in 100 μl 0.01 M acetic acid for 1 h at 22°C on Immulon-2 HB 96-well plates (Thermo Life Sciences, Basingstoke, UK), and blocked for 1 h with 200 μl of TBS containing 50 mg/ml bovine serum albumin). Wells were washed four times with 200 μl of the adhesion buffer (TBS with 1 mg/ml bovine serum albumin) before adding 100 μl of adhesion buffer containing 10 μg/ml of recombinant GST I domains in the presence of either 2 mM MgCl2 or EDTA for 1 h at room temperature. Wells were washed five times with 200 μl of adhesion buffer containing MgCl2, before adding 100 μl of adhesion buffer containing Amersham anti-GST-HRP conjugate (RPN1236; GE Healthcare) at 1:10,000 dilution for 1 h at room temperature. After washing, colour was developed using an ImmunoPure TMB Substrate Kit (Pierce) according to the manufacturer’s instructions. Replacing Mg^2+ with EDTA abolished binding (not shown). Data for short peptide binding were compared using 2-way ANOVA to establish the overall effect of the E318W mutation, and using repeated measures 1-way ANOVA for specific comparisons (Prism 5.0 for Mac, GraphPad).
# [3] = test system: wild-type α2 I domain; test: Solid-phase binding assay of GST I domain to immobilised triple-helical peptides; set-up: species or system human; settings: 1 μg peptide coated per well; 10 μg/ml GST I domain, 2 mM MgCl2; six paired experiments in triplicate (Fig. 2A)
# Protocol: as §1
# [4] = target: collagen-like triple-helical peptide [GPO]2GFOGER[GPO]3; test: SEC; analytical SEC on Superdex 200 10/300 GL at 4°C, 100 mM Tris-HCl pH 7.5, 150 mM NaCl, 2 mM MgCl2; I domain 1 mg/ml with a greater than 2-fold molar excess of peptide, 30 min at 4°C before injection
# [5] = test system: wild-type α2 I domain; test: Analytical size exclusion chromatography of I domain-collagen peptide complexes; type: binding, human
# Protocol: After incubation for 30 min at 4°C, the solutions were injected onto a Superdex 200 10/300 GL column and run at 4°C at a flow rate of 0.5 ml/min in SEC buffer.
# [6] = test system: α2 I E318W; test: as above; type: binding, human
# Protocol: The lyophilised triple-helical peptides (GFOGER, GMOGER, GAOGER) were dissolved in 500 μl of 1 mg/ml stock solutions of either wild-type or E318W α2 I domains. The amount of peptide was chosen so as to yield a greater than 2-fold molar excess of peptide. After incubation for 30 min at 4°C, the solutions were injected onto a Superdex 200 10/300 GL column and run at 4°C at a flow rate of 0.5 ml/min in SEC buffer.
# [7] = target: T1, collagen-like triple-helical peptide …; test: SEC; analytical SEC on Superdex 200 10/300 GL at 4°C, 100 mM Tris-HCl pH 7.5, 150 mM NaCl, 2 mM MgCl2; I domain 1 mg/ml with a greater than 2-fold molar excess of peptide, 30 min at 4°C before injection; settings: both partners purified
# [8] = 1 μg peptide coated per well, 10 μg/ml GST I domain, 2 mM MgCl2, six paired experiments in triplicate (Fig. 2A)
# [9] = solid-phase binding, shorter triple-helical peptides, A450, six paired experiments (Fig. 2A), ANOVA p<0.001
# [10] = SEC, Superdex 200, 4°C, peptide in >2-fold molar excess (Fig. 3)
# [11] = SEC, Superdex 200, 4°C, peptide in >2-fold molar excess, 1 mg/ml I domain, 30 min incubation at 4°C, 100 mM Tris-HCl pH 7.5, 150 mM NaCl, 2 mM MgCl2
molecule,measurement,setting,value
GAOGER,"Change in affinity of E318W compared with wild-type, increasing dose of I domain",[1],substantially greater increase in affinity
GASGER,Change in binding of α2 I E318W compared with wild-type α2 I domain,[2],several-fold increases
GFOGEK,Binding of α2 I E318W to shorter triple-helical Gxx'GEx'' peptides (A450),[2],bound well
same,Binding of wild-type α2 I domain to shorter triple-helical Gxx'GEx'' peptides (A450),[3],bound well
GFOGER [positive control],Binding of α2 I E318W to shorter triple-helical Gxx'GEx'' peptides (A450),[2]; [8],bound well
same,Binding of wild-type α2 I domain to shorter triple-helical Gxx'GEx'' peptides (A450),[3],bound well
same,"Change in affinity of E318W compared with wild-type, increasing dose of I domain","[1]; increasing concentrations of I domain on peptide coatings, single-site binding curves, 3 replicates in a single experiment (Fig. 2B)",modest increase in affinity
GFPGER,Binding of α2 I E318W to shorter triple-helical Gxx'GEx'' peptides (A450),[2],bound well
same,Change in binding of α2 I E318W compared with wild-type α2 I domain,[2]; [9],equally well
same,Binding of wild-type α2 I domain to shorter triple-helical Gxx'GEx'' peptides (A450),[3],bound well
GLKGEN,Change in binding of α2 I E318W compared with wild-type α2 I domain,[2],several-fold increases
GLOGEA,Binding of α2 I E318W to shorter triple-helical Gxx'GEx'' peptides (A450),[2],bound well
same,Binding of wild-type α2 I domain to shorter triple-helical Gxx'GEx'' peptides (A450),[3],bound well
GLOGEN,Binding of α2 I E318W to shorter triple-helical Gxx'GEx'' peptides (A450),[2]; [8],bound well
same,Binding of wild-type α2 I domain to shorter triple-helical Gxx'GEx'' peptides (A450),[3],bound well
GLOGER,Binding of α2 I E318W to shorter triple-helical Gxx'GEx'' peptides (A450),[2]; [8],bound well
same,Binding of wild-type α2 I domain to shorter triple-helical Gxx'GEx'' peptides (A450),[3],bound well
GMOGER,Change in binding of α2 I E318W compared with wild-type α2 I domain,[2],doubling in amplitude
same,Change in binding of α2 I E318W compared with wild-type α2 I domain,[2]; [9],substantial increase
same,"Change in affinity of E318W compared with wild-type, increasing dose of I domain",[1],substantially greater increase in affinity
GQRGER,Change in binding of α2 I E318W compared with wild-type α2 I domain,[2],several-fold increases
GROGER,Binding of α2 I E318W to shorter triple-helical Gxx'GEx'' peptides (A450),[2],bound well
same,Binding of wild-type α2 I domain to shorter triple-helical Gxx'GEx'' peptides (A450),[3],bound well
GVOGEA [shorter triple-helical peptide with the α1β1-specific motif GVOGEA],Binding of α2 I E318W to shorter triple-helical Gxx'GEx'' peptides (A450),[2]; [8],not recognised
same,Binding of wild-type α2 I domain to shorter triple-helical Gxx'GEx'' peptides (A450),[3],not recognised
His-tagged integrin α2 I domain E318W (for SEC and crystallisation) (from UniProt P17301 171-368) (domain or fragment),stoichiometry N (I domains per triple-helical peptide),[4],2
"[GPO]2GFOGER[GPO]3 [GFOGER peptide, short homotrimeric collagen-like peptide [GPO]2GFOGER[GPO]3 used for SEC and crystallisation]",Reduction in elution volume of wild-type α2 I domain on addition of peptide,[5]; [10],0.6 mL
same,Complex formation with wild-type α2 I in solution (I domain:peptide stoichiometry),[5]; [11],formed a 1:1 complex
same,Apparent mass of the wild-type α2 I-peptide complex derived from the calibration of the SEC column,"[5]; Superdex 200, 4°C (Fig. 3)",31 kDa
same,Reduction in elution volume of α2 I E318W on addition of peptide,[6]; [10],1.4 mL
same,Complex formation with α2 I E318W in solution (I domain:peptide stoichiometry),[6]; [11],appeared to form a 2:1 complex
same,Apparent mass of the α2 I E318W-peptide complex from calibration of the SEC column,"[6]; Superdex 200, 4°C (Fig. 3), calculated mass 56.1 kDa",44 kDa
wild-type integrin α2 I domain used in analytical SEC (domain or fragment),stoichiometry N (I domain per triple-helical peptide),[4],1
B1,stoichiometry N,[7],1 I domain per triple-helical peptide
